Results: patent US20190315775A1, “MODIFIED […] AND PHARMACEUTICAL COMPOSITION HAVING SAME AS ACTIVE INGREDIENT” (KEIO UNIVERSITY, priority 2016, published 2019)

Columns and labels:
[1] = Water solubility of drugs (saturation concentration by HPLC); format: physicochemical; details: 100 mM Tris-HCl (pH 7.5); for Water solubility: 25° C., saturation concentration; for Water solubility, relative ratio (numerals in parentheses): relative to TC11
[2] = test system: KMM1 high-risk MM cell line; assay: MTT cell proliferation inhibition, KMM1; format: cell-based; details: Homo sapiens, KMM-1, KMM1, t(6;14), t(8;14), del17, 48 hours, read-out: IC50, cell proliferation inhibitory activity, KMM1
Protocol: (§1) For examination of cell proliferation inhibitory activity, high-risk MM cell lines (KMM1, KMS11, KMS21, KMS26, KMS28, KMS34) established by Takemi Otsuki et al., of Kawasaki Medical School were used (Otsuki, T. et al., Int. J. Oncol., 15: 1205-1212, 1999). […] The genetic abnormality of these cell types, and in particular deletion of p53 gene were examined by FISH method (Chang, H. Blood, 105: 358-360, 2005) (WO2010/061862A1). […] These high-risk MM cell lines were treated with drugs such as TC11, HOEtO-TC11, PEG11(E)-TC11, and PEG11(O)-TC11 at arbitrary concentrations. […] Specifically, each high-risk MM cell line was prepared at a concentration of 2×10^5 cells/ml, and then seeded in an amount of 50 μl (1×10^4 cells) per well. After 24 hours, drugs such as TC11, HOEtO-TC11, PEG11(E)-TC11, and PEG11(O)-TC11 having arbitrary concentrations were added. At 48 hours after addition of each drug, 10 μL each of an MTT labeling reagent in Cell Proliferation Kit I [MTT] (Roche Diagnostics, Basel, Switzerland) was added. After 4 hours of treatment at 37° C., 100 μL each of solution buffer was added and then left to stand overnight at 37° C. Absorbance was measured using a microplate reader Infinit™ M1000 (Tecan, Maennedorf, Switzerland) at a wavelength of 570 nm. Cell viability was found from an absorbance ratio using absorbance at 0 μM designated as 100%. IC50 was calculated from a semi-logarithmic chart using Microsoft (registered trademark) Excel.

[3] = test system: KMS11 high-risk MM cell line; assay: MTT cell proliferation inhibition, KMS11; format: cell-based; details: Homo sapiens, KMS-11, KMS11, t(4;14), del17, 48 hours, read-out: IC50, cell proliferation inhibitory activity, KMS11
Protocol: as §1

[4] = test system: KMS21 high-risk MM cell line; assay: MTT cell proliferation inhibition, KMS21; format: cell-based; details: Homo sapiens, KMS21, t(11;14), 48 hours, read-out: IC50, cell proliferation inhibitory activity, KMS21
Protocol: as §1
Moreover, the concentration dependency of the in vitro cell proliferation inhibitory activity of TC11, and its derivatives, PEG11(E)-TC11 and HOEtO-TC11 against high-risk MM cell line (KMS21) was examined in detail (FIG. 4). […] Such a phenomenon was similarly observed for other high-risk MM cell lines, KMS11, KMS34, and MUM24.

[5] = test system: KMS26 high-risk MM cell line; assay: MTT cell proliferation inhibition, KMS26; format: cell-based; details: Homo sapiens, KMS-26, KMS26, t(4;14), t(4;16), del17, 48 hours, read-out: IC50, cell proliferation inhibitory activity, KMS26
Protocol: as §1

[6] = test system: KMS28 high-risk MM cell line; assay: MTT cell proliferation inhibition, KMS28; format: cell-based; details: Homo sapiens, KMS28, t(4;14), del17, 48 hours, read-out: IC50, cell proliferation inhibitory activity, KMS28
Protocol: as §1

[7] = test system: KMS34 high-risk MM cell line; assay: MTT cell proliferation inhibition, KMS34; format: cell-based; details: Homo sapiens, KMS-34, KMS34, t(4;14), del17, 48 hours, read-out: IC50, cell proliferation inhibitory activity, KMS34
Protocol: as §1

MUM24 MM cell line = assay: MTT cell proliferation inhibition, MUM24; format: cell-based; details: Homo sapiens, MUM24, t(4;14), del13, del17, 48 hours, read-out: IC50, cell proliferation inhibitory activity, MUM24
high-risk MM cell lines = assay: MTT cell proliferation inhibition, panel of high-risk MM cell lines; format: cell-based; details: Homo sapiens, range over the cell lines of Table 2, 48 hours
Protocol: as §1

[8] = test system: KMS34 (human myeloma cells); assay: WST-1 proliferation assay (Example 10), KMS34; format: cell-based; details: KMS-34, WST-1, 48 hours
Protocol: Cancer cells used herein were KMS34 (human myeloma cells), HeLa (human cervical cancer cells), HCT116 (human colon cancer cells; p53+/+), KATOIII (human stomach cancer cells), MDA-MB-231 (human breast cancer cells), HT-29 (human colon adenocarcinoma cells), PANC-1 (human pancreatic cancer cells), and Li-7 (human liver cancer cells). Proliferation assay of various cancer cells was performed by the WST-1 method (Cook, J A. & Mitchell, J B., Anal. Biochem., 179, 1-7, 1984) as follows. One μ1 each of PEG11(E)-TC11 and PEG11(O)-TC11 prepared in advance at target concentrations was added into each well of a 96-well microplate. Medium was added to the wells at 50 μl per well, and then mixed by tapping lightly the plate. Subsequently, KMS34 was prepared at a concentration of 5×10^5 cells/ml, and cells other than KMS34 were prepared at a concentration of 2×10^5 cells/ml. Cells were seeded at 50 μl per well (2.5×10^4 cells, 1×10^4 cells), and then incubated in a CO2 incubator (37° C., 5% CO2) for 48 hours. Ten μ1 each of cell proliferation reagent WST-1 (Roche) was added to each well after incubation, and then the resultants were mixed by lightly tapping the plate, followed by 1 hour of reaction in the CO2 incubator. Subsequently, the plate was shaken with a plate reader for 1 minute, and then absorbance was measured at 450 nm. At this time, absorbance was also measured at 595 nm as a reference wavelength. The net absorbance was obtained by subtracting the absorbance at the reference wavelength from the absorbance at 450 nm.

cereblon (CRBN) = target: T1, cereblon (CRBN) (Homo sapiens, UniProt Q96SW2); assay: Surface plasmon resonance biosensor (BIACORE 3000) interaction with cereblon; format: binding; details: measured at 1 μM, 2 μM and 10 μM, FIG. 9C
T1 construct: recombinant full-length CRBN prepared by the above method was reacted with the beads; T7 tag (N); FLAG tag (C); made in house; host or cells: 293T cells (pcDNA3.3 vector), RIPA extract purified on Ni Sepharose excel
T1 sequence (Q96SW2 whole entry): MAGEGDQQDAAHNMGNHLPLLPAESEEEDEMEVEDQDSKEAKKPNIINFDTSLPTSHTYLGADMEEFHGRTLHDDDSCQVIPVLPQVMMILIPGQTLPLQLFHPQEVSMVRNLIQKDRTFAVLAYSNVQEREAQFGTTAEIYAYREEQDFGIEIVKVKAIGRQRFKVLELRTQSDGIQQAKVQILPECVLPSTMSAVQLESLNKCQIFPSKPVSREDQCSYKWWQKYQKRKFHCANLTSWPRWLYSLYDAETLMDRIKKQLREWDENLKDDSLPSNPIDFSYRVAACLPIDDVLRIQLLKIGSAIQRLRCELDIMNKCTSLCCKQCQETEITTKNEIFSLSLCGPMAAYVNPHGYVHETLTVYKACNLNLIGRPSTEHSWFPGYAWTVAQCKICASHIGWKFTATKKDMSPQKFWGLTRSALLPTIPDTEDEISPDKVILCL

[9] = Dissolution in physiological saline for dosing; format: physicochemical; details: physiological saline (NaCl 0.9 w/v %) alone, dosing concentration

**Q.** Which results are given for COCCOCCOCCOCCOCCOCCOCCOCCOCCOCCOCCOCCC(=O)OCCOc1cc2c(cc1N)C(=O)N(c1c(C(C)C)cccc1C(C)C)C2=O [PEG11(E)-TC11]?
**A.** Water solubility [1]: 8.89 g/100 ml; Water solubility, relative ratio (numerals in parentheses) [1]: 4,447 ×; IC50 [2]: 6.3 µM; IC50 [3]: 1.4 µM; IC50 [4]: 1.6 µM; IC50 [5]: 2.7 µM; IC50 [6]: 6.8 µM; IC50 [7]: 2.6 µM; IC50 (MUM24 MM cell line): 1.8 µM; IC50 (high-risk MM cell lines): 1 to 7 µM; IC50 [8]: 0.67 µM; Binding to CRBN (SPR sensorgram) (cereblon (CRBN)): never bind to CRBN; Dissolution in physiological saline [9]: completely dissolved

**Q.** Which Water solubility [1] does the source give for CC(C)c1cccc(C(C)C)c1N1C(=O)c2ccc(N)cc2C1=O [TC11, 2-(2,6-di-isopropylphenyl)-5-amino-1H-isoindole-1,3-dione, reference compound] here?
**A.** 0.002 g/100 ml

**Q.** What about the “Water solubility, relative ratio (numerals in parentheses)” value [1] of the same compound?
**A.** 1 ×

**Q.** What about the IC50 [2] of the same compound?
**A.** 5.1 µM

**Q.** And the IC50 [3]?
**A.** 2 µM

**Q.** What about the IC50 [4] of the same compound?
**A.** 2.8 µM

**Q.** And the IC50 [5]?
**A.** 3 µM

**Q.** And the IC50 [6]?
**A.** 7.1 µM

**Q.** And the IC50 [7]?
**A.** 4 µM

**Q.** And the IC50 (MUM24 MM cell line)?
**A.** 3 µM

**Q.** And the IC50 (high-risk MM cell lines)?
**A.** 2 to 8 µM

**Q.** What about the IC50 [8] of the same compound?
**A.** 2.6 µM

**Q.** And the “Binding to CRBN (SPR sensorgram)” value (cereblon (CRBN))?
**A.** never bind to CRBN

**Q.** What about the “Dissolution in physiological saline” value [9] of the same compound?
**A.** hardly dissolved

**Q.** Which results are given for COCCOCCOCCOCCOCCOCCOCCOCCOCCOCCOCCOCCOc1cc2c(cc1N)C(=O)N(c1c(C(C)C)cccc1C(C)C)C2=O [PEG11(O)-TC11]?
**A.** Water solubility [1]: 1.47 g/100 ml; Water solubility, relative ratio (numerals in parentheses) [1]: 735 ×; IC50 [2]: 59.3 µM; IC50 [3]: 4.8 µM; IC50 [4]: 22.7 µM; IC50 [5]: 16.4 µM; IC50 [6]: 25.8 µM; IC50 [7]: 10.5 µM; IC50 (MUM24 MM cell line): 9.2 µM; IC50 (high-risk MM cell lines): 5 to 60 µM; IC50 [8]: 16 µM; Binding to CRBN (SPR sensorgram) (cereblon (CRBN)): never bind to CRBN; Dissolution in physiological saline [9]: completely dissolved
